Measured values: ChEMBL document CHEMBL3885861, “Open TG-GATES”

Species: Rattus norvegicus
Assay: Open TG-GATES - Regimen: Single
Type: toxicity, organism-based, Sprague-Dawley
Set-up: regimen Single, gender Male, age 6 weeks
Conditions: in vivo, ip, 1000 mg/kg, route intraperitoneal injection, dose level High; for APTT / Bas / Eos / Fbg / Hb / Ht / Lym / MCH / MCHC / MCV / Mono / Neu / PT / Plat / RBC / Ret / WBC: tissue Blood; for KIDNEY_L / KIDNEY_R / KIDNEY_TOTAL: tissue Kidney; for LIVER: tissue Liver; for A/G / ALP / ALT / AST / BUN / CRE / Ca / Cl / DBIL / GLC / IP / K / LDH / Na / PL / RALB / TBIL / TC / TG / TP / gamma-GTP: tissue Plasma

`N[C@H]1C(O)O[C@H](CO)[C@@H](O)[C@@H]1O` (some centres not stated) [GLUCOSAMINE] gave a TERMINAL_BW (3 h) of 188.7 g, an APTT (3 h) of 21 s and a Bas (3 h) of 0.2%. It also gave an Eos (3 h) of 0.8%, a Fbg (3 h) of 265 mg/dL and a Hb (3 h) of 12.8 g/dL. It also gave a Ht (3 h) of 39.4%, a Lym (3 h) of 73.6% and an MCH (3 h) of 21 pg. The MCHC (3 h) was 32.4%, the MCV (3 h) was 64.9 fL and the Mono (3 h) was 3.4%. The Neu (3 h) was 21.2%, the PT (3 h) was 16.7 s and the Plat (3 h) was 106.7 x10_4/uL. The RBC (3 h) was 608 x10_4/ul, the Ret (3 h) was 9.6% and the WBC (3 h) was 92.4 x10_2/uL. It also gave a KIDNEY_L (3 h) of 0.8 g, a KIDNEY_R (3 h) of 0.8 g and a KIDNEY_TOTAL (3 h) of 1.6 g. For the same compound, the LIVER (3 h) was 8.9 g, the A/G (3 h) was 0.9 and the ALP (3 h) was 1493 IU/L. It also gave an ALT (3 h) of 50 IU/L, an AST (3 h) of 92.6 IU/L and a BUN (3 h) of 12 mg/dL. It also gave a CRE (3 h) of 0.2 mg/dL, a Ca (3 h) of 10.6 mg/dL and a Cl (3 h) of 110 meq/L. The DBIL (3 h) was 0.012 mg/dL, the GLC (3 h) was 167.2 mg/dL and the IP (3 h) was 7.1 mg/dL. It also gave a K (3 h) of 3.9 meq/L, an LDH (3 h) of 93.4 IU/L and a Na (3 h) of 143.4 meq/L. The PL (3 h) was 129.4 mg/dL, the RALB (3 h) was 2.5 g/dL and the TBIL (3 h) was 0.064 mg/dL. The TC (3 h) was 71.4 mg/dL, the TG (3 h) was 25 mg/dL and the TP (3 h) was 5.2 g/dL. For the same compound, the gamma-GTP (3 h) was 1 IU/L, the TERMINAL_BW (6 h) was 187.1 g and the APTT (6 h) was 18.1 s. The Bas (6 h) was 0%, the Eos (6 h) was 0.2% and the Fbg (6 h) was 246.6 mg/dL. It also gave a Hb (6 h) of 13.4 g/dL, a Ht (6 h) of 41.5% and a Lym (6 h) of 62.8%. It also gave an MCH (6 h) of 21 pg, an MCHC (6 h) of 32.3% and an MCV (6 h) of 65.1 fL. The Mono (6 h) was 1.4%, the Neu (6 h) was 34.4% and the PT (6 h) was 18.9 s. For the same compound, the Plat (6 h) was 102.2 x10_4/uL, the RBC (6 h) was 637.8 x10_4/ul and the Ret (6 h) was 9%. For the same compound, the WBC (6 h) was 60.4 x10_2/uL, the KIDNEY_L (6 h) was 0.9 g and the KIDNEY_R (6 h) was 0.8 g. It also gave a KIDNEY_TOTAL (6 h) of 1.7 g, an LIVER (6 h) of 8.4 g and an A/G (6 h) of 0.9. It also gave an ALP (6 h) of 1303.2 IU/L, an ALT (6 h) of 131 IU/L and an AST (6 h) of 226.6 IU/L. The BUN (6 h) was 12.2 mg/dL, the CRE (6 h) was 0.2 mg/dL and the Ca (6 h) was 10.3 mg/dL. It also gave a Cl (6 h) of 107.8 meq/L, a DBIL (6 h) of 0.02 mg/dL and a GLC (6 h) of 159.4 mg/dL. It also gave an IP (6 h) of 8.2 mg/dL, a K (6 h) of 3.7 meq/L and an LDH (6 h) of 316.4 IU/L. It also gave a Na (6 h) of 142.8 meq/L, a PL (6 h) of 125.6 mg/dL and an RALB (6 h) of 2.3 g/dL. It also gave a TBIL (6 h) of 0.072 mg/dL, a TC (6 h) of 68.8 mg/dL and a TG (6 h) of 17.8 mg/dL. It also gave a TP (6 h) of 5 g/dL, a gamma-GTP (6 h) of 1 IU/L and a TERMINAL_BW (9 h) of 182.7 g. For the same compound, the APTT (9 h) was 18.9 s, the Bas (9 h) was 0% and the Eos (9 h) was 0.8%. It also gave a Fbg (9 h) of 289.2 mg/dL, a Hb (9 h) of 13.2 g/dL and a Ht (9 h) of 40.3%. It also gave a Lym (9 h) of 68%, an MCH (9 h) of 21.1 pg and an MCHC (9 h) of 32.7%. The MCV (9 h) was 64.6 fL, the Mono (9 h) was 2.2% and the Neu (9 h) was 28.2%. For the same compound, the PT (9 h) was 17.4 s, the Plat (9 h) was 108.7 x10_4/uL and the RBC (9 h) was 624.8 x10_4/ul. The Ret (9 h) was 9.7%, the WBC (9 h) was 63.8 x10_2/uL and the KIDNEY_L (9 h) was 0.8 g. The KIDNEY_R (9 h) was 0.8 g, the KIDNEY_TOTAL (9 h) was 1.6 g and the LIVER (9 h) was 7.5 g. It also gave an A/G (9 h) of 0.9, an ALP (9 h) of 1707.4 IU/L and an ALT (9 h) of 72.2 IU/L. The AST (9 h) was 136.6 IU/L, the BUN (9 h) was 9.4 mg/dL and the CRE (9 h) was 0.2 mg/dL. The Ca (9 h) was 10.3 mg/dL, the Cl (9 h) was 108.8 meq/L and the DBIL (9 h) was 0.016 mg/dL. For the same compound, the GLC (9 h) was 159.6 mg/dL, the IP (9 h) was 9.9 mg/dL and the K (9 h) was 3.9 meq/L. For the same compound, the LDH (9 h) was 111.4 IU/L, the Na (9 h) was 143.2 meq/L and the PL (9 h) was 142.2 mg/dL. It also gave an RALB (9 h) of 2.5 g/dL, a TBIL (9 h) of 0.07 mg/dL and a TC (9 h) of 79.2 mg/dL. The TG (9 h) was 22 mg/dL, the TP (9 h) was 5.4 g/dL and the gamma-GTP (9 h) was 1 IU/L. For the same compound, the TERMINAL_BW (24 h) was 192.2 g, the APTT (24 h) was 23.1 s and the Bas (24 h) was 0.4%. The Eos (24 h) was 1.2%, the Fbg (24 h) was 165.4 mg/dL and the Hb (24 h) was 13.8 g/dL. It also gave a Ht (24 h) of 42.5%, a Lym (24 h) of 63.2% and an MCH (24 h) of 21 pg. It also gave an MCHC (24 h) of 32.5%, an MCV (24 h) of 64.6 fL and a Mono (24 h) of 4.6%. For the same compound, the Neu (24 h) was 28.4%, the PT (24 h) was 33.2 s and the Plat (24 h) was 109 x10_4/uL. It also gave an RBC (24 h) of 658 x10_4/ul, a Ret (24 h) of 8.6% and a WBC (24 h) of 78.4 x10_2/uL. For the same compound, the KIDNEY_L (24 h) was 0.9 g, the KIDNEY_R (24 h) was 0.9 g and the KIDNEY_TOTAL (24 h) was 1.8 g. The LIVER (24 h) was 8.1 g, the A/G (24 h) was 0.9 and the ALP (24 h) was 2378 IU/L. The ALT (24 h) was 313.8 IU/L, the AST (24 h) was 571.6 IU/L and the BUN (24 h) was 12.6 mg/dL. It also gave a CRE (24 h) of 0.2 mg/dL, a Ca (24 h) of 10.3 mg/dL and a Cl (24 h) of 106.2 meq/L. For the same compound, the DBIL (24 h) was 0.2 mg/dL, the GLC (24 h) was 147.6 mg/dL and the IP (24 h) was 9.3 mg/dL. The K (24 h) was 4.2 meq/L, the LDH (24 h) was 727.6 IU/L and the Na (24 h) was 143.2 meq/L. The PL (24 h) was 99.6 mg/dL, the RALB (24 h) was 2.3 g/dL and the TBIL (24 h) was 0.3 mg/dL. For the same compound, the TC (24 h) was 51.6 mg/dL, the TG (24 h) was 25.2 mg/dL and the TP (24 h) was 4.9 g/dL. It also gave a gamma-GTP (24 h) of 1.2 IU/L.
